21 compounds from US12157746B2, “Tetrahydro-1H-pyrazino[2,1-a]isoindolylquinoline compounds for the treatment of autoimmune disease” (F. HOFFMANN-LA ROCHE AG, priority 2018, dated 2024) can be followed below.

The experiment concerns the target T1, human TLR9 (Homo sapiens, UniProt Q9NR96).
T1 sequence (Q9NR96 26-1032): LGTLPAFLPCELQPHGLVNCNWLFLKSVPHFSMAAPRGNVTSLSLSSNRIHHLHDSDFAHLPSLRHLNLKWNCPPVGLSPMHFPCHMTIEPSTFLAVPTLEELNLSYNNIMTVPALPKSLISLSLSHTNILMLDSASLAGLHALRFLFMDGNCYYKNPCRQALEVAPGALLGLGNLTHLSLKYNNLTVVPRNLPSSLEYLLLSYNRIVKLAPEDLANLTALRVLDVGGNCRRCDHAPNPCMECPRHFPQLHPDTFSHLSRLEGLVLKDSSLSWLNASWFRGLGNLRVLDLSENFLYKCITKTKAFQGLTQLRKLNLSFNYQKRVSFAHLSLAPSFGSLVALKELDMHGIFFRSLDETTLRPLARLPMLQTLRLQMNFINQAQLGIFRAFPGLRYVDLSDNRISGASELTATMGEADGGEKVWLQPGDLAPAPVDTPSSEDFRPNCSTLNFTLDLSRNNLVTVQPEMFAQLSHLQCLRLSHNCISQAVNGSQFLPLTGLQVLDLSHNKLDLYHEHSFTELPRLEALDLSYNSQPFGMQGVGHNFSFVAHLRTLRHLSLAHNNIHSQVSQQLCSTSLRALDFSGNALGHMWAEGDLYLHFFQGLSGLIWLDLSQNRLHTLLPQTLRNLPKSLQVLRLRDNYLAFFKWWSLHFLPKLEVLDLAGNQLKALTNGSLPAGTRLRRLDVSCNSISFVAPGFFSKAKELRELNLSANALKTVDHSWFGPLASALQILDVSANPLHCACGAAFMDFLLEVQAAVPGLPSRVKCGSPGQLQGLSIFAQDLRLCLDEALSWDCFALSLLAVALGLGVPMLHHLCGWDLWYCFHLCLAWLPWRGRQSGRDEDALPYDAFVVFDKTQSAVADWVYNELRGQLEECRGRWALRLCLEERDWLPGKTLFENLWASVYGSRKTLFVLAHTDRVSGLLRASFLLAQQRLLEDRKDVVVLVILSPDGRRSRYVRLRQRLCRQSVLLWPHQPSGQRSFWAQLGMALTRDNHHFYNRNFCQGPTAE
The experiment is described as follows: HEK293-Blue-hTLR-9 cells assay. It is filed as cell-based. To be noted: HEK293-Blue-hTLR9 cells, ODN2006 stimulation, 20 hrs, SEAP reporter; read-out: HEK/hTLR9 IC50. In short, it runs like this: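 Antagonist mode in HEK293-Blue hTLR9 reporter cells (SEAP under NF-κB/AP-1 sites), stimulated with ODN2006 added from a 20 uM solution. Serially diluted compound (1% DMSO final) was incubated 20 hrs at 37° C. Supernatant SEAP was developed with QUANTI-Blue for 2 h at 37° C and read at 620˜655 nm.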

Each structure is given as a SMILES string.

Regarding `C[C@@H]1CN(c2ccc(C#N)c3ncccc23)C[C@@H]2c3ccc(N4CC5(CNC5)C4)cc3CN12` [Example 36, 5-[(4R,10bS)-8-(2,6-diazaspiro[3.3]heptan-2-yl)-4-methyl-3,4,6,10b-tetrahydro-1H-pyrazino[2,1-a]isoindol-2-yl]quinoline-8-carbonitrile], the IC50 is 100 nM. For the compound `C[C@@H]1CN(c2ccc(C#N)c3ncccc23)C[C@@H]2c3ccc(C4CNC4)cc3CN12` [Example 29, 5-[(4R,10bS)-8-(azetidin-3-yl)-4-methyl-3,4,6,10b-tetrahydro-1H-pyrazino[2,1-a]isoindol-2-yl]quinoline-8-carbonitrile], the IC50 amounted to 43.3 nM. With `C[C@@H]1CN(c2ccc(C#N)c3ncccc23)C[C@@H]2c3ccc(N4CCN[C@H](CO)C4)cc3CN12` [Example 12, 5-[(4R,10bS)-8-[(3S)-3-(hydroxymethyl)piperazin-1-yl]-4-methyl-3,4,6,10b-tetrahydro-1H-pyrazino[2,1-a]isoindol-2-yl]quinoline-8-carbonitrile], the IC50 came out at 71.2 nM.

For the compound `CO[C@@H]1CN(c2ccc3c(c2)CN2[C@H](C)CN(c4ccc(C#N)n5ncc(F)c45)C[C@H]32)C[C@H]1N` [Example 113, 4-[(4R,10bS)-8-[(3R,4R)-3-amino-4-methoxy-pyrrolidin-1-yl]-4-methyl-3,4,6,10b-tetrahydro-1H-pyrazino[2,1-a]isoindol-2-yl]-3-fluoro-pyrazolo[1,5-a]pyridine-7-carbonitrile], the IC50 amounted to 135 nM. To `C[C@@H]1CN(c2ccc(C#N)c3ncccc23)C[C@@H]2c3ccc(N4CCOCC(N)C4)cc3CN12` (stereo partly drawn) [Example 54, 5-[(4R,10bS)-8-(6-amino-1,4-oxazepan-4-yl)-4-methyl-3,4,6,10b-tetrahydro-1H-pyrazino[2,1-a]isoindol-2-yl]quinoline-8-carbonitrile] belongs 63.6 nM.

As for `C[C@@H]1CN(c2ccc(C#N)c3ncccc23)C[C@@H]2c3ccc(N[C@H]4CNC[C@@H]4F)cc3CN12` [Example 31, 5-[(4R,10bS)-8-[[(3S,4S)-4-fluoropyrrolidin-3-yl]amino]-4-methyl-3,4,6,10b-tetrahydro-1H-pyrazino[2,1-a]isoindol-2-yl]quinoline-8-carbonitrile], the IC50 worked out at 93.7 nM. Take `C[C@@H]1CN(c2ccc(C#N)n3nccc23)C[C@@H]2c3ccc(N4CCOC[C@H](N)C4)cc3CN12` [Example 101, 4-[(4R,10bS)-8-[(6R)-6-amino-1,4-oxazepan-4-yl]-4-methyl-3,4,6,10b-tetrahydro-1H-pyrazino[2,1-a]isoindol-2-yl]pyrazolo[1,5-a]pyridine-7-carbonitrile]: the IC50 is 165 nM. In the case of `C[C@@H]1CN(c2ccc(C#N)c3ncccc23)C[C@@H]2c3ccc(N4CC5(CN(C)C5)C4)cc3CN12` [Example 38, 5-[(4R,10bS)-4-methyl-8-(6-methyl-2,6-diazaspiro[3.3]heptan-2-yl)-3,4,6,10b-tetrahydro-1H-pyrazino[2,1-a]isoindol-2-yl]quinoline-8-carbonitrile], the IC50 was 66.8 nM.

On to `C[C@@H]1CN(c2ccc(C#N)n3nccc23)C[C@@H]2c3ccc(N4C[C@H](N)[C@@](C)(O)C4)cc3CN12` [Example 109, 4-[(4R,10bS)-8-[(3S,4S)-4-amino-3-hydroxy-3-methyl-pyrrolidin-1-yl]-4-methyl-3,4,6,10b-tetrahydro-1H-pyrazino[2,1-a]isoindol-2-yl]pyrazolo[1,5-a]pyridine-7-carbonitrile], for which the IC50 was found to be 160 nM. For the compound `CO[C@H]1CCN(c2ccc3c(c2)CN2[C@H](C)CN(c4ccc(C#N)n5nccc45)C[C@H]32)C[C@H]1N` [Example 106, 4-[(4R,10bS)-8-[(3R,4S)-3-amino-4-methoxy-1-piperidyl]-4-methyl-3,4,6,10b-tetrahydro-1H-pyrazino[2,1-a]isoindol-2-yl]pyrazolo[1,5-a]pyridine-7-carbonitrile], the IC50 amounted to 135 nM. To `C[C@@H]1CN(c2ccc(C#N)c3ncccc23)C[C@@H]2c3ccc(N4CCNC[C@@](C)(O)C4)cc3CN12` [Example 55B, 5-[(4R,10bS)-8-[(6R)-6-hydroxy-6-methyl-1,4-diazepan-1-yl]-4-methyl-3,4,6,10b-tetrahydro-1H-pyrazino[2,1-a]isoindol-2-yl]quinoline-8-carbonitrile] belongs 156 nM; to `C[C@@H]1CN(c2ccc(C#N)c3ncccc23)C[C@@H]2c3ccc(N4CCNC[C@](C)(O)C4)cc3CN12` [Example 55A, 5-[(4R,10bS)-8-[(6S)-6-hydroxy-6-methyl-1,4-diazepan-1-yl]-4-methyl-3,4,6,10b-tetrahydro-1H-pyrazino[2,1-a]isoindol-2-yl]quinoline-8-carbonitrile], 111 nM; to `CO[C@H]1CN(c2ccc3c(c2)CN2[C@H](C)CN(c4ccc(C#N)c5ncccc45)C[C@H]32)C[C@@H]1N` (relative stereo) [Example 16, 5-[(4R,10bS)-8-[trans-3-amino-4-methoxy-pyrrolidin-1-yl]-4-methyl-3,4,6,10b-tetrahydro-1H-pyrazino[2,1-a]isoindol-2-yl]quinoline-8-carbonitrile], 95.2 nM. Under `C[C@@H]1CN(c2ccc(C#N)c3ncccc23)C[C@@H]2c3ccc(N4CC5(CNCCO5)C4)cc3CN12` [Example 35, 5-[(4R,10bS)-4-methyl-8-(5-oxa-2,8-diazaspiro[3.5]nonan-2-yl)-3,4,6,10b-tetrahydro-1H-pyrazino[2,1-a]isoindol-2-yl]quinoline-8-carbonitrile] stands 111 nM; under `C[C@@H]1CN(c2ccc(C#N)c3ncccc23)C[C@@H]2c3ccc(N4C[C@@H](N)[C@](C)(O)C4)cc3CN12` [Example 45, 5-[(4R,10bS)-4-methyl-8-[trans-(3R,4R)-4-amino-3-hydroxy-3-methyl-pyrrolidin-1-yl]-3,4,6,10b-tetrahydro-1H-pyrazino[2,1-a]isoindol-2-yl]quinoline-8-carbonitrile], 78.5 nM; under `C[C@@H]1CN(c2ccc(C#N)c3ncccc23)C[C@@H]2c3ccc(N4CCC(C)(N)CC4)cc3CN12` [Example 51, 5-[(4R,10bS)-8-(4-amino-4-methyl-1-piperidyl)-4-methyl-3,4,6,10b-tetrahydro-1H-pyrazino[2,1-a]isoindol-2-yl]quinoline-8-carbonitrile], 139 nM. Consider `C[C@@H]1CN(c2ccc(C#N)c3ncccc23)C[C@@H]2c3ccc(N4CC(C)(N)C4)cc3CN12` [Example 39, 5-[(4R,10bS)-8-(3-amino-3-methyl-azetidin-1-yl)-4-methyl-3,4,6,10b-tetrahydro-1H-pyrazino[2,1-a]isoindol-2-yl]quinoline-8-carbonitrile], for which the IC50 worked out at 123 nM. Under `C[C@@H]1CN(c2ccc(C#N)n3nccc23)C[C@@H]2c3ccc(N[C@H]4CNC[C@H]4F)cc3CN12` [Example 98, 4-[(4R,10bS)-8-[[(3S,4R)-4-fluoropyrrolidin-3-yl]amino]-4-methyl-3,4,6,10b-tetrahydro-1H-pyrazino[2,1-a]isoindol-2-yl]pyrazolo[1,5-a]pyridine-7-carbonitrile] stands 197 nM; under `C[C@@H]1CN(c2ccc(C#N)n3nccc23)C[C@@H]2c3ccc(N4CC[C@@](C)(N)C4)cc3CN12` [Example 103, 4-[(4R,10bS)-8-[(3R)-3-amino-3-methyl-pyrrolidin-1-yl]-4-methyl-3,4,6,10b-tetrahydro-1H-pyrazino[2,1-a]isoindol-2-yl]pyrazolo[1,5-a]pyridine-7-carbonitrile], 142 nM. With `C[C@@H]1CN(c2ccc(C#N)c3ncccc23)C[C@@H]2c3ccc(N4CCNC[C@H]4CO)cc3CN12` [Example 11, 5-[(4R,10S)-8-[(2S)-2-(hydroxymethyl)piperazin-1-yl]-4-methyl-3,4,6,10b-tetrahydro-1H-pyrazino[2,1-a]isoindol-2-yl]quinoline-8-carbonitrile], the IC50 is 92 nM. Regarding `C[C@@H]1CN(c2ccc(C#N)n3nccc23)C[C@@H]2c3ccc(N4CC[C@@H](N)C4)cc3CN12` [Example 96, 4-[(4R,10bS)-8-[(3R)-3-aminopyrrolidin-1-yl]-4-methyl-3,4,6,10b-tetrahydro-1H-pyrazino[2,1-a]isoindol-2-yl]pyrazolo[1,5-a]pyridine-7-carbonitrile], the IC50 is 193 nM.
